Target: T1, rAaBGL1 (Aspergillus aculeatus β-glucosidase 1) (Aspergillus aculeatus, UniProt P48825)
T1 construct: full AaBGL1 gene amplified from A. aculeatus genomic DNA, own signal peptide, no tag mentioned; expressed in Aspergillus oryzae niaD300, released from cell surface
T1 sequence (P48825 20-860): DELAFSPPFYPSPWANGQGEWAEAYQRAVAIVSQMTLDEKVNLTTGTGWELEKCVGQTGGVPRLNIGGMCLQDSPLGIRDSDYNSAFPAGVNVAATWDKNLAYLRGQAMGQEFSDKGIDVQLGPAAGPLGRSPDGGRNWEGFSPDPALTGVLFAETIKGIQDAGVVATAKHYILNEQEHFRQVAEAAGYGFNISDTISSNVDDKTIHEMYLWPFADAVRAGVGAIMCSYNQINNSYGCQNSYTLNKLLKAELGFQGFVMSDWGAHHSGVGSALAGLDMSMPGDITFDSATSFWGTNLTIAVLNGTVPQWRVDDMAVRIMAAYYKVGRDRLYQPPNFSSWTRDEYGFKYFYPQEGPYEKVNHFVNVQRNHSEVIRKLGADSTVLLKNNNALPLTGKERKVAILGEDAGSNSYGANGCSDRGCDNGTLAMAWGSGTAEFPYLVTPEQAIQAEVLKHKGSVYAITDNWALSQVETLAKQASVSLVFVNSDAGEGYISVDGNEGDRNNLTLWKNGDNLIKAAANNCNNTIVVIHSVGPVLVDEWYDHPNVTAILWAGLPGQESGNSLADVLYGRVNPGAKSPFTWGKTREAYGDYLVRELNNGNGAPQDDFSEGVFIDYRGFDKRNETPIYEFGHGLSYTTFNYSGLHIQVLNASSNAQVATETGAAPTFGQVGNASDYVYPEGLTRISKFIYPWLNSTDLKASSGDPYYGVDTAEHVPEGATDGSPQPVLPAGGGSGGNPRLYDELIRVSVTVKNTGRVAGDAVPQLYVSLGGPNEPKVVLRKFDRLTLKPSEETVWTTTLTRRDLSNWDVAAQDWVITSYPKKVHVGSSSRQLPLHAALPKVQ
Assay: pNP-Glc hydrolysis, absorbance […] nm, Dixon plot
Format: biochemical
Details: 0.1-0.4 mM pNP-Glc, 20 mM sodium acetate pH 5.0, 37°C; competitive

OC[C@H]1OC(O)[C@H](O)[C@@H](O)[C@@H]1O (stereo partly shown) [glucose]
Ki: 9.99 ± 0.94 mM

Source: article PMC4305095, “Characterization of Aspergillus aculeatus β-glucosidase 1 accelerating cellulose hydrolysis with Trichoderma cellulase system” (AMB Express, 2015)
